Columns and labels:
Alpha amylase [1] = molecular target: T1, Alpha amylase (Homo sapiens, UniProt P0DUB6); experiment: Inhibition of human saliva alpha-amylase using starch as substrate preincubated for 15 mins followed by substrate addition and measured after 15 mins
T1 sequence (P0DUB6 whole entry): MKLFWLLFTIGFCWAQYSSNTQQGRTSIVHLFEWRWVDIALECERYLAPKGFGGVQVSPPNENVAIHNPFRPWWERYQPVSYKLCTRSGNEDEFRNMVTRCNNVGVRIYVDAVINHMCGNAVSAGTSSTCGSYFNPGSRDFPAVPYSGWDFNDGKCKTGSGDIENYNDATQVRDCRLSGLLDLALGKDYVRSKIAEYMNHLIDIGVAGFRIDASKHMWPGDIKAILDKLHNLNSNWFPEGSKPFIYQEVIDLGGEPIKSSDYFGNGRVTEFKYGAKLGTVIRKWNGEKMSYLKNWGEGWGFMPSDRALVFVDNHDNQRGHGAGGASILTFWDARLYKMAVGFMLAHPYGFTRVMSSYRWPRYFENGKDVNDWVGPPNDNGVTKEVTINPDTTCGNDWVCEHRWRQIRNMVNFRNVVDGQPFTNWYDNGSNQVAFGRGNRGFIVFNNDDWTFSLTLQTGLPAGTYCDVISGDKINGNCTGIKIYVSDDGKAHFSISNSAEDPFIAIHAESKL

[2] = Cytotoxicity against HEK293 cells assessed as reduction in cell growth incubated for 12 hrs by CCK-8 assay; type: toxicity, cell-based; details: human
[3] = tested on: O=C(N/N=C/c1coc2cc(Br)ccc2c1=O)c1nc(-c2cccc(Br)c2)cs1; experiment: Competitive inhibition of human saliva alpha-amylase assessed as Km using starch as substrate preincubated for 15 mins followed by substrate addition and measured after 15 mins by Lineweaver-Burk plot analysis; details: time 30.0 min
Alpha amylase [4] = molecular target: T1, Alpha amylase; experiment: Competitive inhibition of human saliva alpha-amylase assessed as inhibition constant using starch as substrate preincubated for 15 mins followed by substrate addition and measured after 15 mins by dixon plot analysis; type: tissue-based

O=C(N/N=C/c1coc2cc(Br)ccc2c1=O)c1nc(-c2ccc(Cl)cc2)cs1
IC50 (Alpha amylase [1]): 6.1 µM
CC50 at 12 h [2]: 68 µM

Alpha amylase (Homo sapiens) (from UniProt P0DUB6)
Km [3]: 2140 µM

Cc1ccc2occ(/C=N/NC(=O)c3nc(-c4ccc(F)cc4)cs3)c(=O)c2c1
IC50 (Alpha amylase [1]): 19 µM

O=C(N/N=C/c1coc2cc(Br)ccc2c1=O)c1nc(-c2cccc(Br)c2)cs1
IC50 (Alpha amylase [1]): 4.46 µM
CC50 at 12 h [2]: > 100 µM
Ki (Alpha amylase [4]): 5.4 µM

From ChEMBL document CHEMBL5136993, “Identification of potent α-amylase inhibitors via dynamic combinatorial chemistry” (Bioorg Med Chem, 2022)
